≈ marks a conversion by molar mass, not a printed value. Calls of active or inactive are those of the source. The rule behind the calls is not given here.
What was measured:
P388 [1] = test: Cytotoxicity against mouse P388 cells in in vitro assay; format: functional; conditions: read-out: ED50 (the source's name)
P388 [2] = test: Cytotoxicity against mouse P388 cells in in vivo assay; format: functional, organism-based

Row | SMILES | EC50 (P388 [1]) | Activity (P388 [2])
1 | CCCCCCCCCCCCCCCCCCCCCC(=O)OCC(COC(=O)CCCCCCCCCCCCCCCCCCCCC)OC(=O)/C=C/c1ccc(O)c(OC)c1 | 0.8 µg/mL (≈ 0.876 µM) | inactive
2 | CCC/C=C/C=C/C=C/C(=O)O[C@@H]1[C@@H](C)[C@@]2(O)[C@@H](C=C(CO)C[C@]3(O)C(=O)C(C)=C[C@@H]23)[C@@H]2C(C)(C)[C@]12OC(C)=O | 0.0022 µg/mL (≈ 0.00397 µM) | –

From ChEMBL document CHEMBL1151374, “Plant anticancer agents. XIX Constituents of Aquilaria malaccensis” (1981)
